Publication PMC10709440, “High-throughput ligand profile characterization in novel cell lines expressing seven heterologous insect olfactory receptors for the detection of volatile plant biomarkers” (Scientific Reports, 2023)
Like-named read-outs stand apart in the source and are kept apart here.

Tests used:
Drosophila OR13a = target: T1, Drosophila OR13a (Drosophila melanogaster, UniProt Q9VXL0); assay: Calcium ion fluorescence (GCaMP6) assay, OR13a stable HEK293 cell line; format: cell-based
T1 construct: expressed in transfected cells
T1 sequence (Q9VXL0 1-418): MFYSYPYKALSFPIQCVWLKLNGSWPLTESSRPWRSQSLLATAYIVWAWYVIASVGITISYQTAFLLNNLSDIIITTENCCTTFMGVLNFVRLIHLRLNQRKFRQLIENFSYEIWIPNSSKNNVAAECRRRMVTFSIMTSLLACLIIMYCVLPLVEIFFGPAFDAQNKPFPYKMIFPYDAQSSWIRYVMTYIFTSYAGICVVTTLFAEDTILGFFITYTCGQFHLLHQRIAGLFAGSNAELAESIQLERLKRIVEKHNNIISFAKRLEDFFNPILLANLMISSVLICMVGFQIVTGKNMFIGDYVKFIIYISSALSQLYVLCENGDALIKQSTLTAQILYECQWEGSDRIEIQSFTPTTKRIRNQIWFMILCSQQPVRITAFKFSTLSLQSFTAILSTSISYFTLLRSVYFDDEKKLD
T1 sequence (Q9VNB5 1-486 partner): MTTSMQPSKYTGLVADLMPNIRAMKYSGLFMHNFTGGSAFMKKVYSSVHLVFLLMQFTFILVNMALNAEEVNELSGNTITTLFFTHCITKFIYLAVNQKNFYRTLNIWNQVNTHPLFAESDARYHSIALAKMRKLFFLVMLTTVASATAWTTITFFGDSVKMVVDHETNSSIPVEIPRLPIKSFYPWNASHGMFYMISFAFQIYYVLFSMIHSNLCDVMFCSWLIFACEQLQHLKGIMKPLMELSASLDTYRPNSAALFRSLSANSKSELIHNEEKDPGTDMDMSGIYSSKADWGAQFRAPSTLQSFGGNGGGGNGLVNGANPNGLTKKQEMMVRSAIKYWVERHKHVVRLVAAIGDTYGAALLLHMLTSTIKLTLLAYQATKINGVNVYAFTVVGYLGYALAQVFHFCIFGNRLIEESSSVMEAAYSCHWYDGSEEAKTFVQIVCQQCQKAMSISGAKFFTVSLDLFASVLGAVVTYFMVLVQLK
Procedure, shortened: (§1)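 Responses are VUAA1-normalized ΔF: each VOC-evoked calcium signal, (FMAX−F0)/F0 over 30 s after injection, divided by the same line's mean 50 µM VUAA1 response. Cells were doxycycline-induced HEK293 with GCaMP6 and the cognate Drosophila OR, in HEPES buffer pH 7.3; ligands tested 0.01–100 μM.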

Drosophila OR49b = target: T2, Drosophila OR49b (Drosophila melanogaster, UniProt Q9V6H2); assay: cell-based; settings: for activation at 1 µM / activation at 10 µM / activation at 100 µM: HEK293; for Average response: mean of biological replicates
T2 construct: expressed in transfected cells
T2 sequence (Q9V6H2 1-375): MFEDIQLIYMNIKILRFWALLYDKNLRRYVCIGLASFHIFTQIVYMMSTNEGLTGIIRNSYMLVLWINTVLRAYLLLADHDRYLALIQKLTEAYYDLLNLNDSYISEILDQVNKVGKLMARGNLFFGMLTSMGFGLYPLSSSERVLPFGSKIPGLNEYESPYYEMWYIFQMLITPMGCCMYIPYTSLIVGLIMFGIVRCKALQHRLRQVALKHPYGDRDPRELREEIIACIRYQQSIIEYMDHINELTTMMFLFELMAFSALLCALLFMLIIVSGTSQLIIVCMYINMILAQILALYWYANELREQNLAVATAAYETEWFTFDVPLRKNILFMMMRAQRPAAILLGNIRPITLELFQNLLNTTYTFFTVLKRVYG
T2 sequence (Q9VNB5 1-486 partner): T1 sequence (Q9VNB5 1-486 partner)
Procedure, shortened: as §1

[1] = HEK293, read-out: OR13a Average response (VUAA1-normalized), 1 μM VOC, 50 μM VUAA1 = 1, responses not exceeding 0.05 considered 0
[2] = HEK293, read-out: OR13a Average response (VUAA1-normalized), 10 μM VOC, 50 μM VUAA1 = 1, responses not exceeding 0.05 considered 0
[3] = HEK293, read-out: OR13a Average response (VUAA1-normalized), 100 μM VOC, 50 μM VUAA1 = 1, responses not exceeding 0.05 considered 0
[4] = HEK293, read-out: OR13a response (VUAA1-normalized response), VOC concentration 1 μM
[5] = HEK293, read-out: OR13a response (VUAA1-normalized response), VOC concentration 10 μM
[6] = HEK293, read-out: OR13a response (VUAA1-normalized response), VOC concentration 100 μM
[7] = concentration 1, normalized fluorescence change, values below 0.05 threshold given as 0
[8] = concentration 10, normalized fluorescence change, values below 0.05 threshold given as 0
[9] = concentration 100, normalized fluorescence change, values below 0.05 threshold given as 0
[10] = VOC concentration 1 μM, read-out: OR49b response (VUAA1-normalized response)
[11] = VOC concentration 10 μM, read-out: OR49b response (VUAA1-normalized response)
[12] = VOC concentration 100 μM, read-out: OR49b response (VUAA1-normalized response)
[13] = OR49b cell line, odorant cc. 1 µM
[14] = OR49b cell line, odorant cc. 10 µM
[15] = OR49b cell line, odorant cc. 100 µM
[16] = ligand concentration 100 (unit not given), 0.05 threshold, values below shown as 0

Molecule | activation at 1 µM (Drosophila OR13a; [1]) [%] | activation at 10 µM (Drosophila OR13a; [2]) [%] | activation at 100 µM (Drosophila OR13a; [3]) [%] | activation at 1 µM (Drosophila OR13a; [4]) [%] | activation at 10 µM (Drosophila OR13a; [5]) [%] | activation at 100 µM (Drosophila OR13a; [6]) [%] | DF norm AVERAGE OR13a (Drosophila OR13a; [7]) | DF norm AVERAGE OR13a (Drosophila OR13a; [8]) | DF norm AVERAGE OR13a (Drosophila OR13a; [9]) | activation at 1 µM (Drosophila OR49b; [10]) [%] | activation at 10 µM (Drosophila OR49b; [11]) [%] | activation at 100 µM (Drosophila OR49b; [12]) [%] | Average response (Drosophila OR49b; [13]) | Average response (Drosophila OR49b; [14]) | Average response (Drosophila OR49b; [15]) | DF norm AVERAGE OR49b (Drosophila OR49b) | further results
Cc1ccc(O)cc1 [4-methylphenol] | 4.62 | 2 | 1.38 | 0 | 0 | 0 | 0 | 0 | 0 | 0 | 11 | 44 | 0.0329 | 0.11 | 0.44 | – | activation at 1 µM (Drosophila OR49b; 1 μM VOC, 50 μM VUAA1 = 1, read-out: OR49b Average response (VUAA1-normalized)): 3%; activation at 10 µM (Drosophila OR49b; 10 μM VOC, 50 μM VUAA1 = 1, read-out: OR49b Average response (VUAA1-normalized)): 11%; activation at 100 µM (Drosophila OR49b; 100 μM VOC, 50 μM VUAA1 = 1, read-out: OR49b Average response (VUAA1-normalized)): 44%
(-)-alpha-cedrene | – | – | – | – | – | – | 0 | 0 | 0 | – | – | – | 0.00 | 0.0843 | 0.00 | – | OR13a Average response (VUAA1-normalized) (Drosophila OR13a; 1 μM VOC, 50 μM VUAA1 = 1, responses not exceeding 0.05 considered 0): 0.00; OR13a Average response (VUAA1-normalized) (Drosophila OR13a; 10 μM VOC, 50 μM VUAA1 = 1, responses not exceeding 0.05 considered 0): 0.00; OR13a Average response (VUAA1-normalized) (Drosophila OR13a; 100 μM VOC, 50 μM VUAA1 = 1, responses not exceeding 0.05 considered 0): 0.00; OR13a response (VUAA1-normalized response) (Drosophila OR13a; VOC concentration 1 μM): 0.00; OR13a response (VUAA1-normalized response) (Drosophila OR13a; VOC concentration 10 μM): 0.00; OR13a response (VUAA1-normalized response) (Drosophila OR13a; VOC concentration 100 μM): 0.00; OR49b response (VUAA1-normalized response) (Drosophila OR49b; VOC concentration 1 μM): 0.00; OR49b response (VUAA1-normalized response) (Drosophila OR49b; VOC concentration 10 μM): 0.0843; OR49b response (VUAA1-normalized response) (Drosophila OR49b; VOC concentration 100 μM): 0.00
CCCCC(C)O (stereo not shown) [2-hexanol] | 0 | 0 | 5 | 0 | 0 | 0 | 0 | 0 | 0 | 0 | 0 | 0 | 0.00 | 0.00 | 0.0161 | 0 | –
CCCCCCCCCCCCCC [tetradecane] | 2.63 | 1.68 | 0 | – | – | – | – | – | – | – | – | – | 0.07 | 0.05 | 0.0348 | – | OR13a response (VUAA1-normalized) at 1 μM (Drosophila OR13a; OR13a cell line, VOC concentration 1 μM): 0.00; OR13a response (VUAA1-normalized) at 10 μM (Drosophila OR13a; OR13a cell line, VOC concentration 10 μM): 0.00; OR13a response (VUAA1-normalized) at 100 μM (Drosophila OR13a; OR13a cell line, VOC concentration 100 μM): 0.00; DF norm AVERAGE OR13a (Drosophila OR13a; ligand concentration 1 (unit not given), 0.05 threshold, values below shown as 0): 0; DF norm AVERAGE OR13a (Drosophila OR13a; ligand concentration 10 (unit not given), 0.05 threshold, values below shown as 0): 0; DF norm AVERAGE OR13a (Drosophila OR13a; [16]): 0; OR49b response (VUAA1-normalized) at 1 μM (Drosophila OR49b; OR49b cell line, VOC concentration 1 μM): 0.07; OR49b response (VUAA1-normalized) at 10 μM (Drosophila OR49b; OR49b cell line, VOC concentration 10 μM): 0.05; OR49b response (VUAA1-normalized) at 100 μM (Drosophila OR49b; OR49b cell line, VOC concentration 100 μM): 0.00; DF norm AVERAGE OR49b (Drosophila OR49b; ligand concentration 1 (unit not given), […]): 0.06864; DF norm AVERAGE OR49b (Drosophila OR49b; ligand concentration 10 (unit not given), […]): 0.05202; DF norm AVERAGE OR49b (Drosophila OR49b; [16]): 0
CCCCC(C)=O [2-hexanone] | 6 | 0 | 0 | 6 | 0 | 0 | 0.05965 | 0 | 0 | 0 | 0 | 0 | 0.00 | 0.00 | 0.00 | 0 | –
COc1cccc(OC)c1 [1,3-dimethoxy benzene] | 0 | 0 | 3.71 | 0 | 0 | 0 | 0 | 0 | 0 | 0 | 0 | 0 | 0.00 | 0.00 | 0.00 | 0 | –
C=C1CC[C@H]2O[C@]2(C)CC[C@@H]2[C@@H]1CC2(C)C [(-)-caryophyllene oxide] | 0 | 0 | 0 | 0 | 0 | 0 | 0 | 0 | 0 | 0 | 0 | 0 | 0.00 | 0.00 | 0.00 | 0 | –
